After the bases stand the sugars from the 5' end (letter, count) and the backbone: PS all phosphorothioate, else s phosphorothioate and o phosphodiester by linkage. Methylation of C is not given here. e = 2'-O-(2-methoxyethyl) (MOE); k = constrained ethyl (cEt); d = 2'-deoxy (DNA); m = 2'-O-methyl

The data set deals with HSD17B13. To be noted: ASO, HepaRG.

Take “ATGTTTATGTAAGCAC (sugars kkdddddddddkekek, PS)”: the target mRNA inhibition (1 µM) stood at 61%. For the setting “1 µM”, TGTCCTAGGATGTTGA (sugars k3 d10 k3, PS) had a target mRNA inhibition of 41%. For CTTCAGTTAGCAGCTA (sugars k3 d10 k3, PS), under “1 µM”, the target mRNA inhibition is 50%. Still for that read-out and setting: the result for TCCTCCACACCGCGCT (sugars k3 d10 k3, PS) reads 20%.

Regarding ATTAAGATGTCCAGGC (sugars k3 d10 k3, PS), under “1 µM”, the target mRNA inhibition worked out at 31%. In turn, “TGTGTTCTTGTTGATA (sugars kkdddddddddkekek, PS)” showed a target mRNA inhibition (1 µM) of 64%.

For the setting “1 µM”, GACTTTGAGACTCTTG (sugars k3 d10 k3, PS) displayed a target mRNA inhibition of 65%.

As to “GATTGGAATGCTACTT (sugars k3 d1 m1 d8 k3, PS)”, the target mRNA inhibition (1 µM) is 48%. Consider CATAGGACATGGAGAC (sugars k3 d10 k3, PS), for which the target mRNA inhibition reads like this: (0.02 µM) 0%; (0.078 µM) 16%; (0.313 µM) 37%; (1 µM) 69%; (1.25 µM) 58%; (5 µM) 83%. Under “1 µM”, GGACAAATGCCTGAGA (sugars k3 d10 k3, PS) had a target mRNA inhibition of 52%. For “TAGTGTAAGCTGAGAG (sugars k3 d1 m1 d8 k3, PS)”, the target mRNA inhibition (1 µM) was determined as 31%.

In the case of TGTGAGAGGATAGTGA (sugars k3 d10 k3, PS), the target mRNA inhibition (1 µM) is 50%. As for TTCTAGGATGATGTTC (sugars k3 d10 k3, PS), the target mRNA inhibition (1 µM) is 72%. The sequence TGATCTCTTAGCTGTG (sugars k3 d10 k3, PS) came in with a target mRNA inhibition (1 µM) of 59%.

CACAATCTAGCAACCT (sugars k3 d10 k3, PS) returned a target mRNA inhibition (1 µM) of 40%.

Under “1 µM”, GAGGTTTTGATACCAG (sugars k3 d10 k3, PS) registered a target mRNA inhibition of 59%. On to TCACCTTTCATAATGT (sugars k3 d10 k3, PS), for which the target mRNA inhibition (1 µM) is 63%. Same read-out and setting: the result for CCTAAGATAAAATTGC (sugars k3 d10 k3, PS) reads 18%. For the setting “1 µM”, AATTTTCGGGTTCTTA (sugars k3 d10 k3, PS) yielded a target mRNA inhibition of 35%. As to “AGAGTCGGTCACCTTT (sugars k3 d9 k3 e1, PS)”, the target mRNA inhibition (1 µM) was 66%. Same read-out and setting: the result for CTCGCCTAAAGGAGAT (sugars k3 d10 k3, PS) reads 56%.

For the sequence “TCTAAACATCTCTGGG (sugars k3 d9 k3 e1, PS)”, the target mRNA inhibition (1 µM) turned out to be 42%. The same measure, in the same setting: to “TGACAATGGTTGATAG (sugars k3 d1 m1 d8 k3, PS)” belongs 42%; to “AATAGCCAGTACAGTT (sugars kkdddddddddkekek, PS)”, 36%. Same read-out and setting: to TAAACCCTGGAGCAGC (sugars k3 d10 k3, PS) belongs 66%; to CTCCGTTATAAGTTTC (sugars k3 d10 k3, PS), 59%.

As to CTTGGGTCCATTGTTT (sugars k3 d10 k3, PS), the target mRNA inhibition (1 µM) came out at 44%. For GCTAATGTATGAGGTC (sugars k3 d10 k3, PS), the target mRNA inhibition is 0% (0.02 µM); 0% (0.078 µM); 34% (0.313 µM); 78% (1 µM); 64% (1.25 µM); 82% (5 µM).

Sequence TGCCAAACCAATGTTT (sugars k3 d10 k3, PS) displayed a target mRNA inhibition (1 µM) of 32%.

Regarding CAGTTTAGATTGCATA (sugars k3 d10 k3, PS), the target mRNA inhibition (1 µM) turned out to be 60%. TTTCTAAATTACTCCG (sugars k3 d10 k3, PS): the target mRNA inhibition (1 µM) is 54%. The same measure, in the same setting: to AACAACCCAGCCTCGG (sugars k3 d10 k3, PS) belongs 20%; to ATAAAGCTTTGCAGCA (sugars k3 d10 k3, PS), 54%; to “AGAGAGTAATCAGTTT (sugars k3 d9 k3 e1, PS)”, 51%. On the same count and under the same terms, the result for CTAGTTACAAACCACC (sugars k3 d10 k3, PS) reads 43%; that for TCTTAAGAGAAGGTGC (sugars k3 d10 k3, PS), 39%; that for CAATCTAGCAACCTCT (sugars k3 d10 k3, PS), 51%. Regarding TTAGCTGTGCACTCAT (sugars k3 d10 k3, PS), the target mRNA inhibition (1 µM) stood at 61%. Take “GTATTCCATCTATCAG (sugars k3 d9 k3 e1, PS)”: where the note is “1 µM”, the target mRNA inhibition is 51%.

Sequence TGTACAGTAGGCAGTT (sugars k3 d10 k3, PS) came in with a target mRNA inhibition (1 µM) of 75%. In turn, GTTCTGATGTCAGACC (sugars k3 d10 k3, PS) gave a target mRNA inhibition (1 µM) of 55%. TGGTAAGGAGTAGTGG (sugars k3 d10 k3, PS): the target mRNA inhibition (1 µM) amounted to 34%. AAGTTAGCCCCCAGGA (sugars k3 d10 k3, PS) registered a target mRNA inhibition (1 µM) of 36%. Still for that read-out and setting: the result for ATACTGTCCCAGCATT (sugars k3 d10 k3, PS) reads 32%. Same read-out and setting: to ATTAAGACAGTTGAGT (sugars k3 d10 k3, PS) belongs 34%. In the case of TTGATAAAATAGGGTG (sugars k3 d10 k3, PS), the target mRNA inhibition (1 µM) was determined as 46%.

Sequence GAGCATAAGTTACCAG (sugars k3 d10 k3, PS) had a target mRNA inhibition (1 µM) of 61%. Still for that read-out and setting: the result for AGAATTAAGGGCTATA (sugars k3 d10 k3, PS) reads 45%; that for GATATTGTTTAGCTGA (sugars k3 d10 k3, PS), 59%; that for GCCTAAACATTTCTCA (sugars k3 d10 k3, PS), 2%. On the same count and under the same terms, the result for GCAAAGTTTGGGCAGA (sugars k3 d10 k3, PS) reads 50%. Still for that read-out and setting: to CTTTAGCTTAAACTCC (sugars k3 d10 k3, PS) belongs 69%. Turning to TAAAGCTGCCTGCTGA (sugars k3 d10 k3, PS), the target mRNA inhibition (1 µM) amounted to 44%.

For the sequence TTCTAAATTACTCCGT (sugars k3 d10 k3, PS), the target mRNA inhibition (1 µM) worked out at 53%. Consider TGAAAACTCAGCCAGC (sugars k3 d10 k3, PS), for which the target mRNA inhibition reads like this: (0.02 µM) 15%; (0.078 µM) 33%; (0.313 µM) 65%; (1 µM) 77%; (1.25 µM) 80%; (5 µM) 95%. In turn, “TAGCTGTGCACTCATT (sugars kkdddddddddkekek, PS)” showed a target mRNA inhibition (1 µM) of 53%. Turning to TGTCATAAAGGTGGGA (sugars k3 d10 k3, PS), under “1 µM”, the target mRNA inhibition came out at 48%. Where the note is “1 µM”, GCTGCTAGTGCCAAAC (sugars k3 d10 k3, PS) registered a target mRNA inhibition of 67%. On to CATTCGAATTTCTTCA (sugars k3 d10 k3, PS), for which the target mRNA inhibition reads like this: (0.02 µM) 29%; (0.078 µM) 53%; (0.313 µM) 74%; (1 µM) 77%; (1.25 µM) 91%; (5 µM) 97%. Sequence CAAGACAGACTGTTGA (sugars k3 d10 k3, PS) displayed a target mRNA inhibition (1 µM) of 39%.

In the case of ATAGCAAGCCAACAGA (sugars k3 d10 k3, PS), the target mRNA inhibition (1 µM) turned out to be 37%. As to TCTACACTAATATTGA (sugars k3 d10 k3, PS), where the note is “1 µM”, the target mRNA inhibition came to 21%. For the setting “1 µM”, GTTATTCTCTTGACAA (sugars k3 d10 k3, PS) displayed a target mRNA inhibition of 42%. CTCCAAGTAGGAGTAG (sugars k3 d10 k3, PS) returned a target mRNA inhibition (1 µM) of 5%.

For ATGAGAACAATCTCCC (sugars k3 d10 k3, PS), the target mRNA inhibition came to 0% (0.02 µM); 9% (0.078 µM); 40% (0.313 µM); 65% (1 µM); 64% (1.25 µM); 78% (5 µM). Consider “GAGTGCATCTTAAGAT (sugars kkdddddddddkekek, PS)”, for which the target mRNA inhibition (1 µM) was 27%.

Consider CTTAATTTTCGGGTTC (sugars k3 d10 k3, PS), for which the target mRNA inhibition (1 µM) turned out to be 37%. Same read-out and setting: the result for TTACATCACCCACTTC (sugars k3 d10 k3, PS) reads 37%. For CCAAGTAGGAGTAGAT (sugars k3 d10 k3, PS), under “1 µM”, the target mRNA inhibition was determined as 19%. “CAGTTTTCCTCATGAT (sugars kkdddddddddkekek, PS)” displayed a target mRNA inhibition (1 µM) of 59%. “AATCACAAGTAAGGTA (sugars k3 d9 k3 e1, PS)” came in with a target mRNA inhibition (1 µM) of 63%. As to AATTCACTATCTCCCT (sugars k3 d10 k3, PS), where the note is “1 µM”, the target mRNA inhibition was 10%.

On to TGTATCTTATAAGACT (sugars k3 d10 k3, PS), for which the target mRNA inhibition (1 µM) came to 45%. On the same count and under the same terms, the result for CTTGACAATGGTTGCC (sugars k3 d10 k3, PS) reads 58%; that for TTGCATAAGAGCCAAA (sugars k3 d10 k3, PS), 46%; that for “ACTAATATTGAGGCAC (sugars kkdddddddddkekek, PS)”, 27%.

As to TCAGAACAGTTCAACT (sugars k3 d10 k3, PS), the target mRNA inhibition (1 µM) was found to be 30%. The same measure, in the same setting: the result for “ACATCTCTGGGACCAA (sugars k3 d1 m1 d8 k3, PS)” reads 68%; that for “GCAGAAATTCACCTTG (sugars k3 d1 m1 d8 k3, PS)”, 54%. On the same count and under the same terms, to AATACCCTTGGTGGAG (sugars k3 d10 k3, PS) belongs 16%. Same read-out and setting: the result for AAAATATGTCCAGGTT (sugars k3 d10 k3, PS) reads 74%; that for TCTAGGATGATGTTCA (sugars k3 d10 k3, PS), 64%. Sequence TATTCTTATGTCATCC (sugars k3 d10 k3, PS) returned a target mRNA inhibition (1 µM) of 75%. On the same count and under the same terms, the result for TTCTTGCAGAAATTCA (sugars k3 d10 k3, PS) reads 42%. On the same count and under the same terms, to AGTGGGAGTCGGATTA (sugars k3 d10 k3, PS) belongs 50%; to TTCTCTTGACAATGGT (sugars k3 d10 k3, PS), 67%.

The record behind these values is the OligoGym collection.
